Active and inactive are the calls of the source.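 The calls were made as follows: active = a tumor-causing dose value with its tumor site reported for any sex and species group of a rodent or other animal cancer study; inconclusive = only studies judged inadequate by the national testing program; inactive = tested in at least one study, none positive.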 Numbered stars: 1 amine (or outer) side, 2 acyl side, 3 side chain; on linkers, the order of the positions; unused ones are H or OH. Bridge positions count the residues as written; N and C are the ends. Square brackets hold non-standard residues; d marks the D form. Peptide text beside a SMILES is read from it. I, II: the chains in the order shown. Actinocin(1to9) = Cc1c2oc3c(C)ccc(C(=O)[*:2])c3nc-2c(C(=O)[*:1])c(N)c1=O; d(aIle) = CC[C@H](C)[C@@H](N)C(=O)O; NMeV = CN[C@H](C(=O)O)C(C)C; Sar = CNCC(=O)O
Assay: DSSTox (CPDBAS) Carcinogenic Potency Database Summary SingleCellCall Results
Settings: animal chronic carcinogenicity bioassays, CPDB summary call
Procedure, shortened: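 Literature-derived summary: each substance receives an overall carcinogenic/non-carcinogenic category drawn from long-term bioassays in rats, mice, hamsters, dogs or primates, using the most positive sex-species experiment and minimal evidence criteria.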

| SMILES | outcome |
| --- | --- |
| S=P(N1CC1)(N1CC1)N1CC1 | active |
| CCCN(N=O)C(=N)N[N+](=O)[O-] | active |
| Cc1cc2ncccc2c2nc(N)n(C)c12 | active |
| C=C(C)C#N | inactive |
| C=CCOC(=O)c1ccccc1C(=O)OCC=C | inactive |
| O=NN1CCCC1 | active; inactive |
| COc1ccc2c3c1O[C@H]1[C@@H](O)C=C[C@H]4[C@@H](C2)N(C)CC[C@@]341 | inactive |
| O=NN(CCCl)C(=O)N[C@@H]1[C@@H](O)[C@H](O)[C@@H](CO)O[C@@H]1O | active |
| ClC1C2(Cl)C3C4C5OC5C5C4C1(Cl)C(Cl)(C53)C2(Cl)Cl (centres undefined) | inactive |
| CN1[C@@H]2CC[C@H]1CC(OC(=O)C(CO)c1ccccc1)C2 (some centres undefined) | inactive; active |
| CCCC(CCC)C(=O)O | active |
| CC1(C)COC1=O | active |
| Cc1ccc(C)c(N)c1 | active |
| [O-][Br+2]([O-])O | active |
| O=S(=O)([O-])[O-].[Cd+2] | active; inactive |
| CC(C(=O)O)c1cccc(C(=O)c2ccccc2)c1 (centres undefined) | inactive |
| Nc1ccc(-c2ccc(N)c(O)c2)cc1O | active |
| CC(C)(C)NC(=O)[C@H]1CC[C@H]2[C@@H]3CC[C@H]4NC(=O)C=C[C@]4(C)[C@H]3CC[C@]12C | active; inactive |
| N[C@@H](Cc1c[nH]c2ccccc12)C(=O)O | inactive |
| COc1cccc(O)c1O | active |
| CC(=O)Oc1ccccc1C(=O)O | inactive |
| O1[As]2O[As]3O[As]1O[As](O2)O3 | inactive |
| C=CCN(N)CC=C | active |

| SMILES | outcome |
| --- | --- |
| C[N+](=O)[O-] | active |
| Cc1c(-c2cnccn2)ssc1=S | inactive; active |
| O=S1(=O)CC=CC1 | inactive |
| CS(=O)(=O)OCCCCOS(C)(=O)=O | inactive |
| Cc1ccc(Cl)cc1N | active |
| CN(N=O)c1ccccn1 | active |
| O=NN1CCCCO1 | active |
| Cc1nnc2n1-c1sc(CCc3ccc(CC(C)C)cc3)cc1C(c1ccccc1Cl)=NC2C (centres undefined) | inactive |
| CC(=O)Nc1nnc(-c2ccc([N+](=O)[O-])o2)s1 | active |
| [Cd+2].[Cl-].[Cl-] | active; inactive |
| Nc1cc(Cl)cc(C(=O)O)c1Cl | active; inactive |
| NCCS(=O)(=O)O | inactive; active |
| O=C(NCC1CCCCN1)c1cc(OCC(F)(F)F)ccc1OCC(F)(F)F (centres undefined) | inactive |
| Clc1cnc(Oc2ccc(Oc3ncc(Cl)cc3Cl)cc2)c(Cl)c1 | inactive |
| O=[N+]([O-])c1ccc(-c2nc(N(CCO)CCO)c3ccccc3n2)s1 | active; inactive |
| CC(=O)Oc1c(C)c(C)c2c(c1C)CCC(C)(CCCC(C)CCCC(C)CCCC(C)C)O2 (centres undefined) | inactive |
| [O]=[Bi] | inactive; active |
| O=C1c2ccccc2C(=O)c2ccccc21 | inactive |
| CCCCCCCCCCCC[N+](C)(C)[O-] | inactive |
| OC[C@@H](O)[C@@H](O)[C@H](O)[C@H](O)CO[C@H]1O[C@H](CO)[C@@H](O)[C@H](O)[C@H]1O | inactive |
| Cc1ccc([N+](=O)[O-])cc1 | active |
| O=C1CC(=O)NC(=O)N1 | inactive |
| O=[N+]([O-])c1ccc(Oc2ccc(Cl)cc2Cl)cc1 | active |

| SMILES | outcome |
| --- | --- |
| Oc1ccc2ccccc2c1N=Nc1ccccc1 | active |
| CC(=O)CN(CCO)N=O | active |
| Cc1ccccc1N=O | active |
| CN(C)CCN(C)N=O | active; inactive |
| CN(N=O)c1ccc(N=O)cc1 | active |
| CCN(CC)N=O | active; inactive |
| Nc1ccc(O)c([N+](=O)[O-])c1 | active |
| O=S(=O)(Oc1ccc(Cl)cc1Cl)c1ccccc1 | inactive |
| O=NN1CCSCC1 | active |
| CCCCC1(COC(=O)CCC(=O)O)C(=O)N(c2ccccc2)N(c2ccccc2)C1=O | inactive |
| CN[C@@H](C)[C@H](O)c1ccccc1 | inactive |
| O=C1O[C@@H](CN2CCOCC2)CN1/N=C/c1ccc([N+](=O)[O-])o1 | active |
| O=S(=O)([O-])[O-].O=S(=O)([O-])[O-].[Zr+4] | inactive |
| C=CCN=C=S | active; inactive |
| O=C(Oc1ccccc1)Oc1ccccc1 | inactive |
| Oc1ccc(OCc2ccccc2)cc1 | inactive; active |
| Cc1cc(C)c(S(=O)(=O)O)cc1N=Nc1cc(S(=O)(=O)O)c2ccccc2c1O | active |
| CC[C@H](C)[C@H]1NC(=O)[C@@H](NC(=O)c2c3nc4c(C(=O)N[C@@H]5C(=O)N[C@H](C(C)C)C(=O)N6CCC[C@H]6C(=O)N(C)CC(=O)N(C)[C@@H](C(C)C)C(=O)O[C@@H]5C)ccc(C)c4oc-3c(C)c(=O)c2N)[C@@H](C)OC(=O)[C@H](C(C)C)N(C)C(=O)CN(C)C(=O)[C@@H]2CCCN2C1=O (I: T[d(aIle)]P[Sar][NMeV] / II: T[dV]P[Sar][NMeV]; ester I:1-I:C, II:1-II:C; linker I:N-II:N via Actinocin(1to9)) | inactive |
| COP(=S)(OC)Oc1ccc(SC)c(C)c1 | inactive |
| CC1=C(/C=C/C(C)=C/C=C/C(C)=C/C(=O)O)C(C)(C)CCC1 | inactive |
| O.O.O.O.O.O.O.O=S(=O)([O-])[O-].[Co+2] | active |
| Oc1ccc(O)cc1 | active |
| CC(=O)C(N=Nc1ccc(-c2ccc(N=NC(C(C)=O)C(=O)Nc3ccccc3)c(Cl)c2)cc1Cl)C(=O)Nc1ccccc1 (centres undefined) | inactive |

| SMILES | outcome |
| --- | --- |
| O=C1CN(/N=C/c2ccc([N+](=O)[O-])o2)C(=O)N1 | active |
| CC(O)C(=O)O (centres undefined) | inactive |
| Cn1cc[nH]c1=S | active; inactive |
| CN(C)c1ccc(C(=O)c2ccc(N(C)C)cc2)cc1 | active |
| O=[N+]([O-])c1cccc2ccccc12 | inactive |
| NC1=NC(=O)C(c2ccccc2)O1 (centres undefined) | inactive; active |
| C[C@]12CC[C@H]3C(=CCc4cc(OS(=O)(=O)O)ccc43)[C@@H]1CCC2=O | inactive; active |
| N#CC(c1ccccc1)c1ccccc1 | inactive |
| ClCOCC(COCCl)OCCl | active |
| CN(N=O)C1=Nc2ccc(Cl)cc2C(c2ccccc2)=[N+]([O-])C1 | inactive |
| C/C=N/N(C)C=O | active; inactive |
| Cc1ncc([N+](=O)[O-])n1CCO | active |
| CCCN(CCC)c1ccc(N=Nc2cc[n+]([O-])cc2)cc1 | inactive |
| Cc1c(C)c2c(c(C)c1O)CCC(C)(CCCC(C)CCCC(C)CCCC(C)C)O2 (centres undefined) | inactive |
| O=C1C(c2[nH]c3ccc(S(=O)(=O)O)cc3c2O)=Nc2ccc(S(=O)(=O)O)cc21 | inactive; active |
| Cc1ccc([N+](=O)[O-])cc1N | active |
| O=C1CCc2ccccc2O1 | active; inactive |
| CC(=O)Nc1ccc(-c2ccccc2)cc1 | active |
| CCNc1nc(Cl)nc(NC(C)C)n1 | active |
| NC(=S)C(N)=S | inactive |

Reference: PubChem BioAssay AID1189 (EPA DSSTox, 2008)
